Source: publication PMC10762078, “Role of UPF1-LIN28A interaction during early differentiation of pluripotent stem cells” (Nature Communications, 2024)
Ends that are not written are not given here.

Legend:
[1] = system: let-7a, let-7g, miR-16-5p and their targets in CHA15 cells; experiment: RT-qPCR of mature LIN28A-regulated miRNAs and CDF of let-7-5p / miR-16-5p target mRNAs (Supplementary Fig. 6f); format: cell-based, human; set-up: key to let-7a level (RT-qPCR): relative level normalised to U6 snRNA; details: for let-7a level (RT-qPCR): Fig. s6f, dot plots, CHA15 cells
Experimental: (§1) cDNA was synthesised using RevertAid Reverse Transcriptase (Thermo Fisher Scientific, EP0441) with synthesised random hexamer (Macrogen) for total RNA or stem-loop primers for miRNA. For RT-qPCR reactions, the SensiFAST SYBR No-ROX kit (Meridian Bioscience) was used according to the manufacturer’s protocol. All data analysis and visualisation were conducted using R 3.6.1 [www.r-project.org] or GraphPad Prism 10. RT primers for miRNA and RT-qPCR primer sequences are provided in Supplementary Data 6.
Genes regulated by miRNA let-7-5p and miR-16-5p were determined by TargetScanHuman. Among miRNA targets sorted by cumulative weighted context++ score (CWCS)[57], the 100 top genes were selected and analysed using CDF. […]
Scatter
(§2) (bottom panel), respectively. f Levels of m ature endogenous m iRNAs in CHA15 cells, which were regulated by LIN28A, were assessed using RT -qPCR. Cum ulative f raction of log2 fold change in the expression of genes regulated by let-7-5p and m iR-16- 5p was shown as CDF graphs. T he relative level of m RNA was norm alised to that of U6 snRNA in (c, d, and f). K–S tests were used for e and f. Unpaired Student’s t-test was used for c , d, and f . * p < 0.05, ** p < 0.01, *** p < 0.001. Exact p -values were provided in Source data. Data are presented as m ean values ± SEM. All statistical test used were two- sided. T he m inim um num ber of independent biological replicate experim ents was a and e n = 2, b–d and f n = 3. T he experim ents were conducted three tim es, each iteration producing consistent results.

CHA15 cells = experiment: RT-qPCR of indicated transcripts (NMD targets, pluripotency markers) in CPP-peptide-treated CHA15 cells (Supplementary Fig. 6d); format: cell-based, human; details: Fig. s6d; for DLK1 mRNA level, mean / FRZB mRNA level, mean / GLI2 mRNA level, mean / MAPK7 mRNA level, mean / NANOG mRNA level, mean / NNAT mRNA level, mean / PDZD4 mRNA level, mean / POU5F1 mRNA level, mean / SERPINB9 mRNA level, mean / SIX3 mRNA level, mean / SLC7A5 mRNA level, mean / SNAP25 mRNA level, mean / SOX2 mRNA level, mean / TRMT61A mRNA level, mean / WLS mRNA level, mean: mean of 3 replicates
Experimental: For CPP-conjugated peptide delivery, HeLa, 293T, and PA-1 cells were incubated with CPP-conjugated peptides or CPP-FITC at 2 μM in DMEM with 10% FBS for 12 h a day before cell harvest. hPSCs were treated with CPP-conjugated peptides at 10 μM in mTeSR Plus Medium, and the peptide-containing medium was changed every day over 10 days. The ROCK inhibitor (Tocris Bioscience, Y-27632) treated-hPSCs were dissociated into single cells using Accutase (Merck, SCR005) and differentiated into ectoderm, mesoderm, and endoderm using the STEMdiff Trilineage Differentiation Kit ([…] Technologies, 05230) following the manufacturer’s protocol. Differentiated cells treated with CPP-conjugated peptides were analysed at 0, 3, and 5 days for ectoderm and endoderm, and at 0, 3, and 4 days for mesoderm. […]
as §1, with “Data 6. […]” for “Data 6.”
Scale bars, 100 μm . d (Corresponding to Fig. 6d) RT -qPCR was perform ed to evaluate the level of indicated transcripts upon the indicated peptide treatm ent in CHA15 cells. e T ranscriptom e analysis was perf orm ed using signif icantly changed transcripts (p < 0.05) f rom siLIN28A or siControl in the indicated CPP-peptide treated CHA15 cells. […]
as §2, with “5p” for “(bottom panel), respectively. f Levels of m ature endogenous m iRNAs in CHA15 cells, which were regulated by LIN28A, were assessed using RT -qPCR. Cum ulative f raction of log2 fold change in the expression of genes regulated by let-7-5p”

[2] = unpaired t test, two-tailed, df=4

Substance	DLK1 mRNA level, mean (CHA15 cells)	FRZB mRNA level, mean (CHA15 cells)	GLI2 mRNA level, mean (CHA15 cells)	MAPK7 mRNA level, mean (CHA15 cells)	NANOG mRNA level, mean (CHA15 cells)	NNAT mRNA level, mean (CHA15 cells)	PDZD4 mRNA level, mean (CHA15 cells)	POU5F1 mRNA level, mean (CHA15 cells)	SERPINB9 mRNA level, mean (CHA15 cells)	SIX3 mRNA level, mean (CHA15 cells)	SLC7A5 mRNA level, mean (CHA15 cells)	SNAP25 mRNA level, mean (CHA15 cells)	SOX2 mRNA level, mean (CHA15 cells)	TRMT61A mRNA level, mean (CHA15 cells)	WLS mRNA level, mean (CHA15 cells)	FRZB, difference between means ± SEM vs. P1 (CHA15 cells; [2])	GLI2, difference between means ± SEM vs. P1 (CHA15 cells; [2])	let-7a level (RT-qPCR) ([1]; replicate 1)	let-7a level (RT-qPCR) ([1]; replicate 2)	let-7a level (RT-qPCR) ([1]; replicate 3)	other results
KKKWCRKKKSSADEKRYRALKRTAERELLMNA [CPP-P8, CPP conjugated to P8]																					LIN28A-regulating miRNAs and their target mRNAs ([1]; CHA15): did not alter the expression of LIN28A-regulating miRNAs and their target mRNAs
KKKWCRKKKSSADEKRYRALKRTAERELLMNA [P8]	56.31	8.725	0.6516	0.7487	0.4762	3.136	0.2348	0.5449	0.7287	16.62	0.3065	0.3657	1.107	0.5794	7.117	7.724 ± 0.7174	-0.3484 ± 0.08883	0.9027	0.8569	0.8754	DLK1, difference between means ± SEM vs. P1 (CHA15 cells; [2]): 55.31 ± 2.539; MAPK7, difference between means ± SEM vs. P1 (CHA15 cells; [2]): -0.2513 ± 0.07831; NANOG, difference between means ± SEM vs. P1 (CHA15 cells; [2]): -0.5239 ± 0.0638; NNAT, difference between means ± SEM vs. P1 (CHA15 cells; [2]): 2.136 ± 0.5570; PDZD4, difference between means ± SEM vs. P1 (CHA15 cells; [2]): -0.7652 ± 0.01959; POU5F1, difference between means ± SEM vs. P1 (CHA15 cells; [2]): -0.4552 ± 0.05944; SERPINB9, difference between means ± SEM vs. P1 (CHA15 cells; [2]): -0.2711 ± 0.04259; SIX3, difference between means ± SEM vs. P1 (CHA15 cells; [2]): 15.62 ± 1.865; SLC7A5, difference between means ± SEM vs. P1 (CHA15 cells; [2]): -0.6935 ± 0.02913; SNAP25, difference between means ± SEM vs. P1 (CHA15 cells; [2]): -0.6344 ± 0.08552; SOX2, difference between means ± SEM vs. P1 (CHA15 cells; [2]): 0.1072 ± 0.1176; TRMT61A, difference between means ± SEM vs. P1 (CHA15 cells; [2]): -0.4206 ± 0.05922; WLS, difference between means ± SEM vs. P1 (CHA15 cells; [2]): 6.117 ± 0.3119
N-MPELQKLQQLKDE-C [P2, peptide derived from the UPF1 (419–700) domain]						0.9363			0.9791							-0.02698 ± 0.06622	-0.05239 ± 0.08994	0.9342	0.9709	0.9188	MAPK7, difference between means ± SEM vs. P1 (CHA15 cells; [2]): 0.03902 ± 0.06368; NNAT, difference between means ± SEM vs. P1 (CHA15 cells; [2]): -0.06363 ± 0.1386; PDZD4, difference between means ± SEM vs. P1 (CHA15 cells; [2]): 0.05466 ± 0.04504; SERPINB9, difference between means ± SEM vs. P1 (CHA15 cells; [2]): -0.02067 ± 0.08291; SIX3, difference between means ± SEM vs. P1 (CHA15 cells; [2]): 0.1242 ± 0.09936; SLC7A5, difference between means ± SEM vs. P1 (CHA15 cells; [2]): 0.1166 ± 0.05272; SNAP25, difference between means ± SEM vs. P1 (CHA15 cells; [2]): 0.01594 ± 0.05751; SOX2, difference between means ± SEM vs. P1 (CHA15 cells; [2]): -0.1171 ± 0.06917; TRMT61A, difference between means ± SEM vs. P1 (CHA15 cells; [2]): 0.0576 ± 0.08417; WLS, difference between means ± SEM vs. P1 (CHA15 cells; [2]): -0.1429 ± 0.08376
N-QKLDQKELQLEPM-C [P1, reference compound]	1	1	1	1	1		1	1		1	1	1	1	1	1			0.8272	1.208	0.9649	
